The numbers were not newly measured in US20050100563A1, “Antifungal compositions and methods of treatment therewith” (priority 2001, published 2005), which cites them from elsewhere.

For this series the following is noted: in water; stated in parentheses, no measurement described.

On to `[O]=[Sn]([F])[F]` [stannic oxyfluoride], for which the solubility result is “approximately 0.3%”.
